Results from PubChem BioAssay (NCI).
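Compound exposure: 48 hours, 5 concentrations, 96-well plates. GI50 = concentration required for 50% inhibition of growth. TGI marks complete inhibition of growth.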

Tests used:
Test in all cases: inhibition of tumour cell growth, NCI panel, 48 h
[1] = tested on: A549 NSCLC
[2] = tested on: COLO 205 colon
[3] = tested on: KM12 colon
[4] = tested on: M14 melanoma
[5] = tested on: MOLT-4 leukemia
[6] = tested on: RPMI-8226 leukemia
[7] = tested on: UACC-62 melanoma
[8] = tested on: LOX IMVI melanoma
[9] = tested on: HS 578T breast
[10] = tested on: PC-3 prostate

Cc1ccc(-c2nc(SCC(=O)O)n[nH]2)cc1
TGI [1]: > 100 µM | TGI [2]: > 100 µM | TGI [3]: > 100 µM | TGI [4]: > 100 µM | TGI [5]: > 100 µM | TGI [6]: > 100 µM | TGI [7]: > 100 µM

Cc1ccc(NC(=O)c2cccc([N+](=O)[O-])c2O)c([N+](=O)[O-])c1
TGI [1]: 68 µM | TGI [2]: 38.6 µM | TGI [3]: 23 µM | TGI [8]: 25.1 µM | TGI [4]: 30.9 µM | TGI [6]: > 100 µM | TGI [7]: 24.8 µM

Cc1ccc(C2NC(=S)NC3=C2CCOc2c3ccc3ccccc23)cc1 (stereo not given)
GI50 [1]: > 100 µM | TGI [1]: > 100 µM | GI50 [2]: 9.64 µM | TGI [2]: > 100 µM | GI50 [9]: > 100 µM | TGI [9]: > 100 µM | GI50 [3]: 8.25 µM | TGI [3]: > 100 µM | GI50 [4]: 79 µM | TGI [4]: > 100 µM | GI50 [5]: 7.97 µM | TGI [5]: > 100 µM | GI50 [10]: 22.2 µM | TGI [10]: > 100 µM

CCC[CH2][Sn]([CH2]CCC)([O]C(=O)c1cc(F)cc(F)c1)[O]C(=O)c1cc(F)cc(F)c1
GI50 [1]: 7.13 µM | TGI [1]: 20.4 µM | GI50 [2]: 0.841 µM | TGI [2]: 2.05 µM | GI50 [3]: 1.63 µM | TGI [3]: 3 µM | GI50 [8]: 0.617 µM | TGI [8]: 1.91 µM | GI50 [4]: 1.36 µM | TGI [4]: 2.67 µM | GI50 [5]: 0.282 µM | TGI [5]: 1.73 µM | GI50 [7]: 1.11 µM | TGI [7]: 2.31 µM

COC1(OC)CC2C=C(S(=O)(=O)c3ccccc3)C1N(Cc1ccccc1)C2=O (stereo not given)
TGI [1]: > 100 µM | TGI [2]: 43.4 µM | TGI [3]: 92.3 µM | TGI [8]: 33.1 µM | TGI [4]: 67.1 µM | TGI [5]: > 100 µM | TGI [7]: 58.4 µM

N#Cc1c(-c2ccc(Cl)cc2)n(O)c2ccccc12
GI50 [1]: 2.6 µM | TGI [1]: 11.9 µM | GI50 [2]: 13.4 µM | TGI [2]: 30.7 µM | GI50 [3]: 2.17 µM | TGI [3]: 11.7 µM | GI50 [8]: 2.24 µM | TGI [8]: 13.4 µM | GI50 [4]: 0.803 µM | TGI [4]: 7.36 µM | GI50 [5]: 3.61 µM | TGI [5]: 15.5 µM | GI50 [10]: 2.85 µM | TGI [10]: 20.2 µM | GI50 [6]: 1.6 µM | TGI [6]: 6.48 µM | GI50 [7]: 2.79 µM | TGI [7]: 12.3 µM

CCOC(=O)C(=O)Nc1ccc(C)cc1C
TGI [1]: > 100 µM | TGI [2]: > 100 µM | TGI [3]: > 100 µM | TGI [8]: > 100 µM | TGI [4]: > 100 µM | TGI [5]: > 100 µM | TGI [6]: > 100 µM | TGI [7]: > 100 µM

CCCCCCCC/C=C/CCCCCCCCC1=NCCN1CCO
GI50 [1]: 2.67 µM | TGI [1]: 7.41 µM | GI50 [2]: 3.76 µM | TGI [2]: 13.9 µM | GI50 [9]: 2.37 µM | TGI [9]: 7.68 µM | GI50 [3]: 2.71 µM | TGI [3]: 7.64 µM | GI50 [4]: 2.16 µM | TGI [4]: 5.11 µM | GI50 [5]: 2.1 µM | TGI [5]: 4.73 µM | GI50 [10]: 2.61 µM | TGI [10]: 9.14 µM | GI50 [7]: 3.05 µM | TGI [7]: 11 µM

CSC(C1c2ccccc2N(C)C2=NC(=O)N(C)C(=O)C21Cl)S(=O)(=O)c1ccc(C)cc1 (stereo not given)
TGI [1]: > 100 µM | TGI [2]: > 100 µM | TGI [3]: > 100 µM | TGI [8]: > 100 µM | TGI [5]: 40.8 µM | TGI [6]: 57.8 µM | TGI [7]: > 100 µM

COc1cc2c(cc1OC)-c1cc3cc(OC)c(OC)cc3n1CC2
TGI [1]: > 100 µM | TGI [2]: > 100 µM | TGI [3]: > 100 µM | TGI [4]: > 100 µM | TGI [5]: > 100 µM | TGI [6]: > 100 µM | TGI [7]: > 100 µM

Cn1c2c(c3ccccc31)C1CCCCC1C1C(=O)NC(=O)C21 (stereo not given)
TGI [1]: > 100 µM | TGI [2]: > 100 µM | TGI [3]: > 100 µM | TGI [8]: > 100 µM | TGI [4]: > 100 µM | TGI [5]: 67.5 µM | TGI [6]: > 100 µM | TGI [7]: > 100 µM

COc1ccc(/C(=N/NC(=O)NN)C(c2ccc(OC)cc2)C2(O)CNc3c(Cl)cc(Cl)cc32)cc1 (stereo not given)
TGI [1]: > 100 µM | TGI [2]: > 100 µM | TGI [3]: > 100 µM | TGI [8]: > 100 µM | TGI [4]: > 100 µM | TGI [5]: > 100 µM | TGI [6]: > 100 µM | TGI [7]: > 100 µM

Brc1ccc(-c2nnc(-c3nn(-c4ccccc4)c4nc5ccccc5nc34)o2)cc1
TGI [1]: > 100 µM | TGI [2]: > 100 µM | TGI [3]: > 100 µM | TGI [8]: > 100 µM | TGI [4]: > 100 µM | TGI [5]: > 100 µM | TGI [6]: > 100 µM | TGI [7]: > 100 µM

COc1cc(/C=C/c2cc(/C=C/c3ccc(O)c(OC)c3)n(-c3c(C)cccc3C)c(=O)n2)ccc1O
GI50 [1]: 1.18 µM | TGI [1]: 7.6 µM | GI50 [2]: 2.07 µM | TGI [2]: 4.19 µM | GI50 [9]: 0.817 µM | TGI [9]: > 100 µM | GI50 [3]: 0.47 µM | TGI [3]: 3.63 µM | GI50 [10]: 1.17 µM | TGI [10]: 6.52 µM | GI50 [7]: 0.635 µM | TGI [7]: 3.28 µM

COc1ccc(/C=C2\CCCCC2=O)cc1
TGI [1]: > 100 µM | TGI [2]: > 100 µM | TGI [8]: > 100 µM | TGI [4]: > 100 µM | TGI [5]: > 100 µM | TGI [7]: > 100 µM

O=S(O)CCCCCSSCCCCSSCCCCCS(=O)O
TGI [1]: > 100 µM | TGI [2]: > 100 µM | TGI [3]: > 100 µM | TGI [8]: > 100 µM | TGI [4]: > 100 µM | TGI [5]: > 100 µM | TGI [6]: > 100 µM | TGI [7]: > 100 µM
